Key:
A. niger = assay: Franz cell nail bioassay for anti-fungal gas penetration across a human nail; assay type: cell-based, Aspergillus niger; conditions: 4 applications every 2 h 10 min, read after 24 hours; agar 8 mm below nail
Method: After the agar had cooled and set, 25 μl of an A. niger spore suspension was pipetted onto the surface of the agar and a section of human nail fitted in an air-tight manner above the outlet hole, and clamped in place. The cells were then incubated at 32° C. for 24 h to obtain a carpet of mycelium.
The top of the funnel for all of the Franz cells was then covered with Parafilm. The cells were left at room temperature. After a period of 2 h 10 min, the solutions in each Franz cell were removed and replaced with an equivalent solution and the process repeated every 2 h and 10 min for a further […] applications, giving a total of 4 applications. After the final application of solution, the cells were left covered at room temperature, to allow slow growth of the organism for 24 h.

onychomycosis = conditions: cited from earlier work; for Safety concerns: in vivo, po

**Q.** Which “Growth of A. niger mycelium under human nail” value (A. niger) does the source give for `O=C(O)CC(O)(CC(=O)O)C(=O)O` [citric acid] here?
**A.** full carpet of growth of mycelium

**Q.** With `CCC(C)n1ncn(-c2ccc(N3CCN(c4ccc(OCC5COC(Cn6cncn6)(c6ccc(Cl)cc6Cl)O5)cc4)CC3)cc2)c1=O` (centres unmarked) [itraconazole] as the compound, how does the Safety concerns (onychomycosis) read?
**A.** liver toxicity, severe skin reactions and drug interactions

**Q.** Which “Growth of A. niger mycelium under human nail” value (A. niger) does the source give for `O=NO` [sodium nitrite] here?
**A.** full carpet of growth of mycelium

**Q.** Which Safety concerns (onychomycosis) does the source give for `CN(C/C=C/C#CC(C)(C)C)Cc1cccc2ccccc12` [terbinafine] here?
**A.** liver toxicity, severe skin reactions and drug interactions

**Q.** And the Cure rates (onychomycosis; oral treatment)?
**A.** ~70%
